From ChEMBL document CHEMBL5678816, “A Next-Generation TRK Kinase Inhibitor Overcomes Acquired Resistance to Prior TRK Kinase Inhibition in Patients with TRK Fusion-Positive Solid Tumors” (Cancer Discov, 2017)

Assay: Inhibition of cell proliferation in MPRIP-NTRK1 fusion positive human CUTO-3 cells incubated for 72 hrs by DAPI staining based analysis
Type: functional
Conditions: CUTO-3, 72 h

C[C@@H]1CCc2ncc(F)cc2[C@H]2CCCN2c2ccn3ncc(c3n2)C(=O)N1 [SELITRECTINIB]
IC50: ≤ 5 nM
